Assay results published in patent US9850283B2, “Macrocyclic inhibitors of the PD-1/PD-L1 and CD80(B7-1)/PD-L1 protein/protein interactions” (BRISTOL-MYERS SQUIBB COMPANY, priority 2013, dated 2017).
Read-outs that look alike come from different tables or passages of the source. Starred links: 1 amine or outer side, 2 acyl side, 3 side chain; linkers in the order of their positions; H or OH if unused. Positions of bridges follow the written chain, without caps; N, C: chain ends. Non-standard residues stand in square brackets, D forms with d. Residues, ends and D or L forms follow the SMILES beside them. *: point of attachment. Phe(3,4,5-F3) = N[C@@H](Cc1cc(F)c(F)c(F)c1)C(=O)O; Phe(4-CF3) = N[C@@H](Cc1ccc(C(F)(F)F)cc1)C(=O)O; Hyp = O=C(O)[C@@H]1C[C@@H](O)CN1; NMeF = CN[C@@H](Cc1ccccc1)C(=O)O; X4 = O=C([C@H]1COCCN1[*:1])[*:2]; dHyp = O=C(O)[C@H]1C[C@H](O)CN1; NMeNle = CCCC[C@H](NC)C(=O)O; NMeA = CN[C@@H](C)C(=O)O; Orn = NCCC[C@H](N)C(=O)O; 2Furoyl = O=C(c1ccco1)*; Dab = NCC[C@H](N)C(=O)O; Dap = NC[C@H](N)C(=O)O

Tests used:
[1] = biological target: T1, LK35.2-hPD-L1 cells / PE-labeled PD-1-Ig (Homo sapiens, UniProt Q9NZQ7); assay: LK35.2-hPD-L1 cell binding high-content screening assay; assay type: cell-based; details: cluster symbol, read-out: CBA IC50 cluster
T1 construct: expressed in transfected cells; host or cells: LK35.2 mouse B cell line
T1 sequence (Q9NZQ7 19-290): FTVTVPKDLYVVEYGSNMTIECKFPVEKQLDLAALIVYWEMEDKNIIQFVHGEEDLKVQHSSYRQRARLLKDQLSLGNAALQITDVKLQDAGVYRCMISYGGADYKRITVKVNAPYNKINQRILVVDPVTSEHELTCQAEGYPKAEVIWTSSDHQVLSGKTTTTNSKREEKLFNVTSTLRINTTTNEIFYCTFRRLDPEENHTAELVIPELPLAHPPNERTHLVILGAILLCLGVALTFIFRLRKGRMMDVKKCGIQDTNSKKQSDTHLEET
Procedure, shortened: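 Compound effect on PD-1/PD-L1 binding is measured by imaging cell-associated phycoerythrin signal. Human PD-1-Ig (PE on Ig tag, 1 nM final) is applied with compound to a murine B cell line overexpressing human PD-L1 for 1 h at 37 °C in serum-containing RPMI.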

Human PD-L1/PD-1 = biological target: T2, Human PD-L1/PD-1 (Homo sapiens, UniProt Q9NZQ7); assay: HTRF PD-1-Ig/PD-L1-His binding assay (human PD-L1); details: cluster symbol; read-out: HTRF IC50 cluster
T2 construct: made in house; host or cells: HEK293T
T2 sequence (Q9NZQ7 with tags, fused parts or gaps): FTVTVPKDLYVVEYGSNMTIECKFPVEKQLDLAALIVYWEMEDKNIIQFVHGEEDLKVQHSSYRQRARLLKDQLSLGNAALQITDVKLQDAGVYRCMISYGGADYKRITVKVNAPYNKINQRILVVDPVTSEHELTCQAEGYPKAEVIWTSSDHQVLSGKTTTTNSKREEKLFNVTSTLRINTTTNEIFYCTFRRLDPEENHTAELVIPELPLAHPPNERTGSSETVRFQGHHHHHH
Procedure, shortened: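 Interaction of Fc-tagged soluble PD-1 with His-tagged soluble PD-L1 is monitored by time-resolved FRET. Donor is europium cryptate anti-Ig (1 nM final) and acceptor is APC anti-His (20 nM final). Assay buffer is dPBS with 0.1% BSA and 0.05% Tween-20.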

[2] = cell binding assay, cell line not given

For `CCCC[C@H]1C(=O)N(C)[C@@H](CCCC)C(=O)N[C@@H](CCCNC(=N)N)C(=O)N[C@H](C(=O)NCC(N)=O)CSCC(=O)N[C@@H](Cc2ccc(C(F)(F)F)cc2)C(=O)N(C)[C@@H](C)C(=O)N[C@@H](CC(N)=O)C(=O)N2CCC[C@H]2C(=O)N[C@@H](CN)C(=O)N[C@@H](CC(C)C)C(=O)N2C[C@H](O)C[C@H]2C(=O)N[C@@H](Cc2c[nH]c3ccccc23)C(=O)N[C@@H](CO)C(=O)N[C@@H](Cc2c[nH]c3ccccc23)C(=O)N1C` [Example 7030] ({CH2CO}-[Phe(4-CF3)][NMeA]NP[Dap]L[Hyp]WSW[NMeNle][NMeNle]RCG-NH2; thioether N-14), the IC50 [1, 2] was 4.78 to 72.9 nM and the IC50 (Human PD-L1/PD-1) was 0.385 to 6.74 nM.

`CCCC[C@H]1C(=O)N(C)[C@@H](CCCC)C(=O)N[C@@H](CC(C)C)C(=O)N[C@H](C(=O)NCC(N)=O)CSCC(=O)N[C@@H](Cc2ccc(O)cc2)C(=O)N(C)[C@@H](C)C(=O)N[C@@H](CC(=O)O)C(=O)N2CCC[C@H]2C(=O)N[C@@H](Cc2c[nH]cn2)C(=O)N[C@@H](CCCCN)C(=O)N2C[C@H](O)C[C@H]2C(=O)N[C@@H](Cc2c[nH]c3ccccc23)C(=O)N[C@@H](CCCCN)C(=O)N[C@@H](Cc2c[nH]c3ccccc23)C(=O)N1C` [Example 5095] ({CH2CO}-Y[NMeA]DPHK[Hyp]WKW[NMeNle][NMeNle]LCG-NH2; thioether N-14) was tested, and the IC50 [1, 2] was 0.158 to 4.71 nM and the IC50 (Human PD-L1/PD-1) was 0.385 to 6.74 nM.

`CCCC[C@H]1C(=O)N(C)[C@@H](CCCC)C(=O)N[C@@H](CCCNC(=N)N)C(=O)N[C@H](C(=O)NCC(N)=O)CSCC(=O)N[C@@H](Cc2ccccc2)C(=O)N(C)[C@@H](C)C(=O)N[C@@H](CC(N)=O)C(=O)N2CCC[C@H]2C(=O)N[C@@H](Cc2c[nH]cn2)C(=O)N[C@@H](CC(C)C)C(=O)N[C@@H](CCNC(=O)c2ccco2)C(=O)N[C@@H](Cc2c[nH]c3ccccc23)C(=O)N[C@@H](CO)C(=O)N[C@@H](Cc2c[nH]c3ccccc23)C(=O)N1C` [Example 1023] ({CH2CO}-F[NMeA]NPHL[Dab](2Furoyl)WSW[NMeNle][NMeNle]RCG-NH2; thioether N-14) gave an IC50 ([1]; cell line of CBA not given (LK35.2-hPD-L1 or 293T-hPD-L1)) of over 74.3 nM and an IC50 (Human PD-L1/PD-1) of over 30.5 nM.

In the case of `CCCC[C@H]1C(=O)N(C)CC(=O)N[C@@H](CC(=O)O)C(=O)N[C@@H](C(C)C)C(=O)N(C)[C@@H](Cc2ccccc2)C(=O)N[C@@H](Cc2ccc(O)cc2)C(=O)N(C)CC(=O)N[C@@H](Cc2c[nH]c3ccccc23)C(=O)N[C@@H](Cc2ccc(O)cc2)C(=O)N[C@@H](CC(C)C)C(=O)N[C@H](C(=O)NCC(N)=O)CSCC(=O)N[C@@H](Cc2ccccc2)C(=O)N(C)[C@@H](Cc2cccc3ccccc23)C(=O)N1C` (single isomer, unassigned) [Example 3585-A], the IC50 [1, 2] is reported as over 74.3 nM and the IC50 (Human PD-L1/PD-1) is reported as over 30.5 nM.

Compound `CCCC[C@H]1C(=O)N(C)CC(=O)N[C@@H](CC(=O)O)C(=O)N[C@@H](C(C)C)C(=O)N(C)[C@@H](Cc2ccccc2)C(=O)N[C@@H](Cc2ccc(O)cc2)C(=O)N(C)[C@@H](Cc2ccc(O)cc2)C(=O)N[C@@H](Cc2c[nH]c3ccccc23)C(=O)N[C@@H](Cc2ccc(O)cc2)C(=O)N[C@@H](CC(C)C)C(=O)N[C@H](C(=O)NCC(N)=O)CSCC(=O)N[C@@H](Cc2ccccc2)C(=O)N(C)[C@@H](Cc2ccccc2)C(=O)N1C` [Example 3511] (HELM PEPTIDE1{[O=C(C[*:3])[*:2]].F.[meF].[CCCC[C@@H](C(=O)[*:2])N(C)[*:1]].[Sar].D.V.[meF].Y.[meY].W.Y.L.C.G.[am]}$PEPTIDE1,PEPTIDE1,1:R3-14:R3$$$V2.0) has an IC50 [1, 2] of 4.78 to 72.9 nM and an IC50 (Human PD-L1/PD-1) of over 30.5 nM.

`CCCC[C@H]1C(=O)N2C[C@@H](O)C[C@@H]2C(=O)N[C@@H](CC(N)=O)C(=O)N[C@@H](C(C)C)C(=O)N(C)[C@@H](Cc2ccccc2)C(=O)N[C@@H](CCCN)C(=O)N2CCOC[C@@H]2C(=O)N[C@@H](Cc2c[nH]c3ccccc23)C(=O)N[C@@H](Cc2ccc(O)cc2)C(=O)N[C@@H](CCCN)C(=O)N[C@H](C(=O)NCC(N)=O)CSCC(=O)N[C@@H](Cc2cc(F)c(F)c(F)c2)C(=O)N(C)[C@@H](Cc2ccccc2)C(=O)N1C` [Example 3607] ({CH2CO}-[Phe(3,4,5-F3)][NMeF][NMeNle][dHyp]NV[NMeF][Orn][X4]WY[Orn]CG-NH2; thioether N-13) showed an IC50 [1, 2] of 0.158 to 4.71 nM and an IC50 (Human PD-L1/PD-1) of 0.385 to 6.74 nM.
